Tests used:
[1] = biological target: T1, dopaminergic receptors (Rattus norvegicus, UniProt P61169); experiment: Affinities for the dopaminergic receptors (displacement of spiroperidol 3H, rat striated bodies); format: binding; conditions: rat striatum, relative to haloperidol = 100, from concentrations inhibiting 50% of specific fixation
T1 construct: Striated bodies removed from the brains of 6 male rats; from tissue; host or cells: rat striatum (striated bodies), membrane fraction
Experimental: Striated bodies removed from the brains of 6 male rats weighing an average of 150 g were homogenized at one-twentieth (weight/volume) in 0.32M sucrose. After centrifuging the homogenized mixture at 1000 g for 10 minutes at 0° C., the supernatant was centrifuged at 30,000 g for 15 minutes at +4° C. The residue was taken up in 25 ml of Tris HCl 50 mM pH 7.7 buffer and centrifuged at 30,000 g for 15 minutes at +4° C. The new residue was taken up in 50 ml of Krebs Tris HCl pH 7.3 buffer and the suspension was pre-incubated for 10 minutes at 37° C. Then it was incubated for 29 minutes on a water-bath at +37° C. in the presence of spiroperidol ^3 H alone, with an excess of haloperidol, and with increasing concentrations of the test product. The incubated suspensions were filtered on Whatman GF/C and the filters were washed three times with 5 ml of Tris HCl 50 mM buffer. The radioactivity of the filters is measured by liquid scintillation. The non-specific fixation was determined in parallel by incubation of spiroperidol ^3 H in the presence of an excess of haloperidol. The affinity of the product tested for the dopaminergic receptors is given relative to haloperidol as reference product,
CD=concentration of cold haloperidol inhibiting 50% of the specific fixation of the spiroperidol ^3 H,
CX=concentration of the product under test inhibiting 50% of the specific fixation of the piroperidol ^3 H.
The relative affinity was determined by the relation: [formula]

[2] = Study of the acute toxicity (LD0); format: in vivo; conditions: oral, mice, maximal dose not causing any mortality over 8 days
Experimental: The lethal doses LD0 of the different compounds tested was evaluated after oral administration in mice and the maximal dose not causing any mortality over 8 days was called the LD0.

[3] = tested on: arterial pressure; experiment: Determination of hypotensive activity (carotid arterial pressure, anesthetized rats); format: in vivo, male rats of WISTAR strain; conditions: 0.01 mg/kg intravenous, anesthetized male Wistar rats
Experimental: The hypotensive activity was studied in male rats of WISTAR strain weighing about 300 g and anesthetized with nembutal (50 mg/kg by intraperitoneal route). The test product was administered intravenously in the jugular vein. The arterial pressure in the carotid was measured before and after administration of the test product. The following table indicates the variations expressed in percentage of the arterial pressure after administration of the product under test relative to the initial control arterial pressure.

[4] = tested on: enolase γγ; experiment: Antianoxic activity: enolase test (kainic acid lesions); format: in vivo; conditions: intraperitoneal, upwards of a dose of 1 mg/kg, 1 hour after kainic acid, mice
Experimental: Suffering cerebral cells release enolase γγ which is a specific indicator of neuronal lesions. In the test, the lesions were carried out in mice by subcutaneous injection of 35/mg/kg of kainic acid.

T1 sequence (P61169 whole entry): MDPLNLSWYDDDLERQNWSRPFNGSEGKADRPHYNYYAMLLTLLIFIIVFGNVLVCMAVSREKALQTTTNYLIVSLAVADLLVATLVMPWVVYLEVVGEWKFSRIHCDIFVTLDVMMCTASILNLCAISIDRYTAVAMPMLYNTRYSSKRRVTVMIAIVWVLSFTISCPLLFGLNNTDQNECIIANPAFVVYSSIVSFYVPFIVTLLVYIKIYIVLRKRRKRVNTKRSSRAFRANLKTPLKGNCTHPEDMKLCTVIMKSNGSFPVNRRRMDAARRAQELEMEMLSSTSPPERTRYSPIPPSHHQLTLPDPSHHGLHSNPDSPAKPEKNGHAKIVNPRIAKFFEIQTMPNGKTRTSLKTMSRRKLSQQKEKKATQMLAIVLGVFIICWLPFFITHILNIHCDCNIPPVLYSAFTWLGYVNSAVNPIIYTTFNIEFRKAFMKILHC

Structure (SMILES)	Relative affinity (Haloperidol = 100) [1]	LD0 [2] [mg/kg]	% Variations of the arterial pressure 5 minutes after administration [3] [%]	seral concentration of enolase [4]
c1cc2c3c(c[nH]c3c1)[C@H]1OCCN[C@@H]1C2 (relative stereo) [Example 2, (dl-trans) 2,6,6a,7,8,9,10a-hexahydro-6H-indol-[4,3-g,h]-1,4-benzoxazine]	0.09	> 200	–	–
CCCN1CCO[C@@H]2c3c[nH]c4cccc(c34)C[C@H]21 (relative stereo) [Example 3, (dl-trans) 2,6a,7,8,9,10a-hexahydro-7-propyl-6H-indol-[4,3-g,h]-1,4-benzoxazine]	13	100	< -40	reduced the seral concentration of enolase
CN1CCO[C@@H]2c3c[nH]c4cccc(c34)C[C@H]21 (relative stereo) [Example 4, (d,l trans) 2,6a,7,8,9,10a-hexahydro-7-methyl 6H-indol-[4,3-g,h]-1,4-benzoxazine]	0.4	–	–	–

— patent US4774242A, “Tetrahydrobenz(c,d)indoles and pharmaceutical use” (Roussel Uclaf, priority 1986, dated 1988)
